A short description of series [1]: Inhibition of BCRP in human MCF7/MX100 cells assessed as reversal of topotecan resistance after 5 days by MTS/PMS assay.
Series [2] in a line: Inhibition of BCRP (unknown origin) transfected in HEK293/R2 cells assessed as reversal of topotecan resistance after 5 days by MTS/PMS assay.
A short description of series [3]: Inhibition of P-gp (unknown origin) expressed in human LCC6MDR cells assessed as reversal of paclitaxel resistance after 5 days by MTS/PMS assay.

This is an account of results in BindingDB's records for doi:10.1021/acs.jmedchem.9b00963 (Hong Kong Polytechnic University, 2019).

What is called EC50 is the concentration at which the effect is half-maximal.

Some results are limits rather than exact numbers.

For `Cc1ccc2oc(-c3ccc(OCCOCCOCCn4cc(CCCOc5ccc(-c6cc(=O)c7ccc(F)cc7o6)cc5)nn4)cc3)cc(=O)c2c1`, the EC50 in series [1] came to 20 nM; in series [2], 14 nM; in series [3], 219 nM.

As to `O=c1cc(-c2ccc(OCCOCCOCCn3cc(CCCCOc4ccc5c(=O)cc(-c6ccccc6)oc5c4)nn3)cc2)oc2ccccc12`, the concentration for a half-maximal effect (EC50) turned out to be 18 nM in series [1], 47 nM in series [2] and 360 nM in series [3].

With `O=c1cc(-c2ccccc2)oc2cc(OCCN(Cc3ccccc3)Cc3cn(CCOCCOCCOc4ccc(-c5cc(=O)c6cc(F)ccc6o5)cc4)nn3)ccc12`, the EC50 in series [1] is 20 nM; in series [2] it was 27 nM; in series [3], 334 nM.

Turning to `O=c1cc(-c2ccccc2)oc2cc(OCCCCc3cn(CCOCCOCCOc4ccc(-c5cc(=O)c6cc(F)ccc6o5)cc4)nn3)ccc12`, the EC50 in series [1] is 31 nM; in series [2] it was 44 nM; in series [3], 325 nM.

`O=c1cc(-c2ccccc2)oc2cc(OCCOCCOCCn3cc(CN(CCOc4ccc5c(=O)cc(-c6ccccc6)oc5c4)Cc4ccccc4)nn3)ccc12`: the results for the EC50 in series [1], in series [2] and in series [3] were 58 nM, 54 nM and 403 nM, respectively.

In the case of `Cc1ccc2oc(-c3ccc(OCCCCc4cn(CCOCCOc5ccc(-c6cc(=O)c7ccccc7o6)cc5)nn4)cc3)cc(=O)c2c1`, the concentration for a half-maximal effect (EC50) in series [1] came out at 33 nM; in series [2] it was 67 nM; in series [3], 370 nM.

With `O=c1cc(-c2ccccc2)oc2cc(OCCOCc3cn(CCOCCOCCOc4ccc(-c5oc6ccccc6c(=O)c5OCc5ccccc5)cc4)nn3)ccc12`, the figures for the concentration for a half-maximal effect (EC50) in series [1], in series [2] and in series [3] were 25 nM, 38 nM and 383 nM, respectively.

With `COC(=O)c1cccc(COc2c(-c3ccc(OCCOCCOCCn4cc(CN5CCN(Cc6cn(CCOCCOCCOc7ccc(-c8oc9ccccc9c(=O)c8OCc8cccc(C(=O)OC)c8)cc7)nn6)CC5)nn4)cc3)oc3ccccc3c2=O)c1`, the figures for the EC50 in series [1], in series [2] and in series [3] were 40 nM, 31 nM and over 1000 nM, respectively.

In the case of `O=c1cc(-c2ccccc2)oc2cc(OCCCCc3cn(CCOCCOCCOc4ccc(-c5oc6ccccc6c(=O)c5OCc5ccccc5)cc4)nn3)ccc12`, the half-maximal effective concentration (EC50) in series [1] is 16 nM; in series [2], 35 nM; in series [3], 278 nM.

As for `COC(=O)c1cccc(COc2c(-c3ccc(OCCOCCOCCn4cc(CCCOc5ccc6c(=O)cc(-c7ccccc7)oc6c5)nn4)cc3)oc3ccccc3c2=O)c1`, the EC50 is 7 nM in series [1], 3.5 nM in series [2] and 414 nM in series [3].

Consider `COC(=O)c1cccc(COc2c(-c3ccc(OCCOCCOCCn4cc(CCCOc5ccc(-c6cc(=O)c7ccc(F)cc7o6)cc5)nn4)cc3)oc3ccccc3c2=O)c1`, for which the figures for the EC50 in series [1], in series [2] and in series [3] were 2.3 nM, 2 nM and 246 nM, respectively.

Turning to `Cc1ccc2oc(-c3ccc(OCCOCCOCCn4cc(COCCOc5ccc6c(=O)cc(-c7ccccc7)oc6c5)nn4)cc3)cc(=O)c2c1`, the concentration giving a half-maximal response (EC50) in series [1] was 145 nM; in series [2] it was 90 nM; in series [3], 773 nM.

Regarding `O=c1cc(-c2ccccc2)oc2cc(OCCN(Cc3ccccc3)Cc3cn(CCOc4ccc5c(=O)cc(-c6ccccc6)oc5c4)nn3)ccc12`, the EC50 in series [1] came to 280 nM; in series [2], 190 nM; in series [3], 897 nM.

On to `O=c1cc(-c2ccccc2)oc2cc(OCCCc3cn(CCOCCOCCOc4ccc(-c5oc6ccccc6c(=O)c5OCc5ccccc5)cc4)nn3)ccc12`, for which the EC50 was 78 nM in series [1], 60 nM in series [2] and 259 nM in series [3].

Turning to `COC(=O)c1cccc(COc2c(-c3ccc(OCCOCCn4cc(CN(Cc5cn(CCOCCOc6ccc(-c7oc8ccccc8c(=O)c7OCc7cccc(C(=O)OC)c7)cc6)nn5)c5ccccc5)nn4)cc3)oc3ccccc3c2=O)c1`, the EC50 in series [1] is 2.2 nM; in series [2], 6.8 nM; in series [3], over 1000 nM.
